Measured values taken from patent publication US20240018501A1, “HIGHER PERFORMANCE PROTEASES FOR SCARLESS PEPTIDE TAG REMOVAL” (priority 2017, published 2024).
Ends that are not written are not given here.

How the values were obtained:
CylA = CylA proteolytic cleavage of leader peptides (MALDI-TOF MS); type: biochemical, Enterococcus faecalis
Protocol: Targeted peptides were dissolved in H2O to a final concentration of 3 mg/mL. To a 85 μL solution of peptides, 10 μL of 500 mM HEPES buffer (pH 7.5) was added followed by 5 μL of 0.5 mg/mL AspN protease (for modified CylLL and CylLS peptides), 0.1 mg/mL CylA protease (for modified and unmodified CylLL, CylLS peptides, and modified HalA2-GDVQAE peptide) or 0.1 mg/mL LicP protease (for LicA2). For cleavage tests of the engineered GDVQAE peptides, CylA was added to a final concentration of 0.01 mg/mL, whereas the peptide was added to a concentration of 0.3 mg/mL with 50 mM HEPES buffer (pH 7.5). The protease cleavage reaction mixtures were kept at 25° C. for 1 to 48 h. Osmotic pressure was adjusted with NaCl solution with a final concentration of 150 mM. The digested peptide mixture was directly used for antimicrobial and hemolytic assay. For the kinetic analysis of CylA and its mutant proteins, His6-CylA-27-412 and His6-CylA-27-412-E95A proteins were added to a final concentration of 500 ng/mL and 2.5 μg/mL (22 nM and 110 nM), respectively, with modified CylLS supplied at a concentration of 0.3 mg/mL (36 μM). The reactions were allowed to proceed at room temperature and were stopped by 1% TFA at different time points for LC/MS analysis. Halα and Halβ were obtained by factor Xa cleavage of modified HalA1Xa and HalA2 Xa peptides using the procedure of Y. Shi, et al. J. Am. Chem. Soc. […]

MBP-ElxP = MBP-ElxP activity assay by MALDI-TOF MS; type: biochemical, Staphylococcus epidermidis; conditions: non-cognate NisA and NisA mutants
Protocol: A typical activity assay consisted of 50 mM Tris HCl pH 8.0, 50 μM peptide, 5 μM MBP-ElxP in a final volume of 100 μL. The sample was incubated for 2 h at room temperature. To monitor cleavage activity, samples were desalted using a zip tip concentrator (Millipore), mixed in a 1:1 ratio with sinapinic acid, and spotted on a MALDI-TOF Bruker plate. Ion intensities for the resulting precursor peptide, leader peptide and core peptide were normalized and the proteolytic efficiency was measure as the amount of substrate left after cleavage reaction (Table 1). Reactions were performed with tagged enzyme and substrates unless otherwise noticed.

Substance | leader peptide removal / cleavage by CylA (CylA) | cleavage by ElxP (MBP-ElxP)
His6-NisA-GDVQAE: linear NisA with engineered GDVQAE recognition sequence | successfully removed | 
wild type NisA: non-cognate lanthipeptide precursor peptide of nisin, His6-tagged (MSTKDFNLDLVSVSKKDSGASPRITSISLCTPGCKTGALMGCNMKTATCHCSIHVSK; cysteine pairing not given here; also: His6-tagged, tag position not given here) |  | does not cleave
